Literature values in patent publication US7045126B2, “Histone deacetylase-8 proteins, nucleic acids, and methods for use” (Applera Corporation, priority 1999, dated 2006).

Experiments:
[1] = tested on: histones
[2] = tested on: tumor; settings: tumor bearing nude mice
[3] = tested on: acute promyelocytic leukemia (APL); settings: incl. retinoic acid resistant forms
[4] = tested on: cell cycle; settings: variety of systems

Nc1ccccc1NC(=O)c1ccc(CNC(=O)OCc2cccnc2)cc1 [MS-27275]
histone hyperacetylation [1]: induces histone hyperacetylation | inhibition of tumor growth [2]: demonstrates efficacy in inhibiting tumor growth

CCCC(=O)[O-].[Na+] [sodium butyrate]
therapeutic use to target transcription in APL [3]: successful even in retinoic acid resistant forms of the disease

CC(/C=C/C(=O)NO)=C\[C@@H](C)C(=O)c1ccc(N(C)C)cc1 [trichostatin A]
cell cycle arrest and/or differentiation [4]: induce cell cycle arrest and/or differentiation
